Data taken from US20200138827A1, “SMALL MOLECULE MODULATORS OF HUMAN STING” (Curadev Pharma Limited, priority 2017, published 2020).

What follows are molecules tested against T1, WT/R232 STING protein (Homo sapiens, UniProt Q86WV6, H232R) (assay: Luciferase reporter assay in HEK293T-hSTING-Luciferase cells, WT/R232). Settings: 20 hr stimulation, read-out: R232 Activity (EC50 range).
T1 construct: host or cells: HEK293T
Format: cell-based
Excerpt: • a) Stable STING expressing cells—Stable HEK293T STING-expressing cell lines were generated using plasmids purchased from Invivogen, Calif., USA, that contain STING cDNA cloned into the pUNO-1 vector under hEF1-HTLV promoter and containing the Blasticidin selection cassette. The plasmids hSTING(R232), hSTING(H232), hSTING(HAQ) were directly procured from Invivogen while hSTING (AQ) and hSTING (Q) were derived from hSTING(HAQ) and hSTING (R232) plasmids respectively by using a PCR based site directed mutagenesis method. These vectors were individually transfected into HEK293T cells using Lipofectamine (Invitrogen) and transfected cells were selected under Blasticidin selection. These transfected cells were further subjected to clonal selection using the limiting dilution method to obtain clonally pure populations of HEK cells transfected with each of the above mentioned human STING variants. Only those clones were selected in which ligand independent activation of STING was minimal. • b) Stable Luciferase reporter gene expressing cells—Stable HEK293T Luciferase reporter gene expressing cell lines were generated using pCDNA4 plasmids under an IRF-inducible promoter. This promoter is comprised of five tandem interferon-stimulated response elements (ISRE) fused to an ISG54 minimal promoter. This vector was transfected into HEK293T cells using Lipofectamine (Invitrogen) and transfected cells were selected under Zeocin selection. These transfected cells were further subjected to clonal selection using the limiting dilution method to obtain clonally pure populations of HEK cells transfected the Luciferase reporter construct. Only those clones were selected in which ligand independent induction of luciferase was minimal.
5×10^5 clonally selected HEK293T-hSTING-Luciferase cells were seeded in 384-well plates in growth medium and stimulated with novel compounds. After 20 hr of stimulation supernatant were removed and secretary reporter gene activity were measured using the Quanti-Luc detection system (Invivogen) on a Spectramax i3X luminometer.
All compounds were first tested in a primary screen using WT/R232 STING protein to obtain a ‘fold-induction’ over baseline levels of protein activity.

T1 sequence (Q86WV6 whole entry H232R): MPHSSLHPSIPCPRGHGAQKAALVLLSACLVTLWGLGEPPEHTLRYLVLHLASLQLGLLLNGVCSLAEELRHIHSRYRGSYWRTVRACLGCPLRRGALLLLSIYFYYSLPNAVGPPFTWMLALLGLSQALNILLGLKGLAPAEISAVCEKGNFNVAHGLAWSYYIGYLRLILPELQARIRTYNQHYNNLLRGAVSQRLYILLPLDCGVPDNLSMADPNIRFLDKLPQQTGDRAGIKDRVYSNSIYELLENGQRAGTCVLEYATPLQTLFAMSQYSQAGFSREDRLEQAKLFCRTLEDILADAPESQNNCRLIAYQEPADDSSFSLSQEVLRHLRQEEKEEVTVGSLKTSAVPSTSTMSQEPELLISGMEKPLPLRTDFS

SMILES	EC50 [µM]
O=C(NCc1c(F)cc(F)cc1F)c1ccc2c(c1)N(C(=O)c1c(F)cccc1Cl)CCO2 [Example 264, 4-(2-chloro-6-fluorobenzoyl)-N-(2,4,6-trifluorobenzyl)-3,4-dihydro-2H-benzo[b-1,4]oxazine-6-carboxamide]	> 10
Cc1cnc(CNC(=O)c2ccc3c(c2)N(Cc2ccccc2)C(=O)CS3)s1 [Example 64, 4-benzyl-N-((5-methylthiazol-2-yl)methyl)-3-oxo-3,4-dihydro-2H-benzo[b-1,4]thiazine-6-carboxamide]	> 10
O=C(NCc1ccco1)c1ccc2c(c1)N(Cc1cccnc1)C(=O)CS2 [Example 27, N-(furan-2-ylmethyl)-3-oxo-4-(pyridin-3-ylmethyl)-3,4-dihydro-2H-benzo[b-1,4]thiazine-6-carboxamide]	> 10
O=C(NCc1ccoc1)c1ccc2c(c1)N(Cc1ccccc1)C(=O)CS2 [Example 50, 4-benzyl-N-(furan-3-ylmethyl)-3-oxo-3,4-dihydro-2H-benzo[b-1,4]thiazine-6-carboxamide]	> 10
O=C(NCc1ncccn1)c1ccc2c(c1)N(Cc1ccccc1)C(=O)CS2 [Example 54, 4-benzyl-3-oxo-N-(pyrimidin-2-ylmethyl)-3,4-dihydro-2H-benzo[b-1,4]thiazine-6-carboxamide]	> 10
COc1ccc(CCNC(=O)c2ccc3c(c2)N(Cc2ccccc2)C(=O)CS3)cc1OC [Example 171, 4-benzyl-N-(3,4-dimethoxy-phenethyl)-3-oxo-3,4-dihydro-2H-benzo[b][1,4] thiazine-6-carboxamide]	> 10
O=C(NCc1ccco1)c1cc2c(cc1Br)SCC(=O)N2Cc1ccccc1F [Example 228, 7-bromo-4-(2-fluorobenzyl)-N-(furan-2-ylmethyl)-3-oxo-3,4-dihydro-2H-benzo[b][1,4]thiazine-6-carboxamide]	> 10
CC1Sc2ccc(C(=O)NCc3cnccn3)cc2N(Cc2cc(F)cc(F)c2)C1=O (centres unmarked) [Example 168, 4-(3,5-difluorobenzyl)-2-methyl-3-oxo-N-(pyrazin-2-ylmethyl)-3,4-dihydro-2H-benzo [b][1,4]thiazine-6-carboxamide]	> 10
O=C(NCc1ccco1)c1cc(C2CC2)c2c(c1)N(Cc1ccccc1F)C(=O)CS2 [Example 227]	> 10
Cc1csc(CNC(=O)c2ccc3c(c2)N(Cc2ccccc2)C(=O)CS3)n1 [Example 65, 4-benzyl-N-((4-methylthiazol-2-yl)methyl)-3-oxo-3,4-dihydro-2H-benzo[b-1,4]thiazine-6-carboxamide]	> 10
O=C(NCc1ccco1)c1ccc2c(c1)N(Cc1ccccc1C(F)(F)F)C(=O)CS2 [Example 30, N-(furan-2-ylmethyl)-3-oxo-4-(2-(trifluoro-methyl)benzyl)-3,4-dihydro-2H-benzo[b-1,4]thiazine-6-carboxamide]	> 10
O=C(NCc1cccnc1)c1ccc2c(c1)N(Cc1c(F)cccc1Cl)C(=O)CS2 [Example 109, 4-(2-chloro-6-fluorobenzyl)-3-oxo-N-(pyridin-3-ylmethyl)-3,4-dihydro-2H-benzo[b-1,4]thiazine-6-carboxamide]	> 10
O=C(NCc1ccco1)c1ccc2c(c1)N(C(=O)c1c(F)cccc1Cl)CCS2 [Example 256, 4-(2-chloro-6-fluorobenzoyl)-N-(furan-2-ylmethyl)-3,4-dihydro-2H-benzo[b][1,4]thiazine-6-carboxamide]	> 10
Cc1nc(CNC(=O)c2ccc3c(c2)N(Cc2ccccc2)C(=O)CS3)cs1 [Example 77, 4-benzyl-N-((2-methylthiazol-4-yl)methyl)-3-oxo-3,4-dihydro-2H-benzo[b-1,4]thiazine-6-carboxamide]	> 10
O=C(CN1C(=O)CSc2ccc(C(=O)NCc3ccco3)cc21)c1ccccc1 [Example 2, N-(furan-2-ylmethyl)-3-oxo-4-(2-oxo-2-phenylethyl)-3,4-dihydro-2H-benzo[b][1,4] thiazine-6-carboxamide]	> 10
O=C(NCc1ccco1)c1ccc2c(c1)N(Cc1ccncc1)C(=O)CS2 [Example 28, N-(furan-2-ylmethyl)-3-oxo-4-(pyridin-4-ylmethyl)-3,4-dihydro-2H-benzo[b-1,4]thiazine-6-carboxamide]	> 10
O=C(NCc1cc2cnccc2o1)c1ccc2c(c1)N(Cc1cc(F)cc(F)c1)C(=O)CC2 [Example 273, 1-(3,5-difluorobenzyl)-N-(furo[3,2-c]pyridin-2-ylmethyl)-2-oxo-1,2,3,4-tetrahydroquinoline-7-carboxamide]	> 10
Nc1ncc(NC(=O)CN2C(=O)CSc3ccc(C(=O)NCc4ccco4)cc32)cn1 [Example 9, 4-(2-((2-amino-pyrimidin-5-yl)amino)-2-oxoethyl)-N-(furan-2-ylmethyl)-3-oxo-3,4-dihydro-2H-benzo[b-1,4]thiazine-6-carboxamide]	> 10
Cc1ccc(CN2CCC(CNC(=O)c3ccc4c(c3)N(Cc3c(F)cccc3Cl)C(=O)CS4)CC2)cc1 [Example 128, 4-(2-chloro-6-fluorobenzyl)-N-((1-(4-methylbenzyl)piperidin-4-yl)methyl)-3-oxo-3,4-dihydro-2H-benzo[b][1,4]thiazine-6-carboxamide]	> 10

Next, values leading:

EC50 [µM]	SMILES
1 to 10	O=C(NCc1ccco1)c1ccc2c(c1)N(Cc1cccc3ccccc13)C(=O)CS2 [Example 14, N-(furan-2-ylmethyl)-4-(naphthalen-1-ylmethyl)-3-oxo-3,4-dihydro-2H-benzo[b-1,4]thiazine-6-carboxamide]
> 10	O=C(NCc1ccco1)c1ccc2c(c1)N(C(=O)c1ccccc1F)CCS2(=O)=O [Example 254, 4-(2-Fluorobenzoyl)-N-(furan-2-ylmethyl)-3,4-dihydro-2H-benzo[b-1,4]thiazine-6-carboxamide 1,1-dioxide]
> 10	Cc1ccc(CNC(=O)c2ccc3c(c2)N(Cc2c(F)cccc2Cl)C(=O)CS3)cn1 [Example 36, 4-(2-chloro-6-fluorobenzyl)-N-((6-methyl-pyridin-3-yl)methyl)-3-oxo-3,4-dihydro-2H-benzo[b-1,4]thiazine-6-carboxamide]
> 10	COc1ccccc1CNC(=O)c1ccc2c(c1)N(Cc1ccccc1)C(=O)CS2 [Example 116, 4-benzyl-N-(2-methoxybenzyl)-3-oxo-3,4-dihydro-2H-benzo[b-1,4]thiazine-6-carboxamide]
> 10	O=C(NCc1ccco1)c1ccc2c(c1)N(Cc1ccc(Cl)cc1)CCS2 [Example 250, 4-(4-Chlorobenzyl)-N-(furan-2-ylmethyl)-3,4-dihydro-2H-benzo[b-1,4]thiazine-6-carboxamide]
> 10	O=C(NC(c1ccccc1)c1ccccc1)c1ccc2c(c1)N(Cc1ccccc1F)C(=O)CS2 [Example 42, N-benzhydryl-4-(2-fluorobenzyl)-3-oxo-3,4-dihydro-2H-benzo[b][1,4] thiazine-6-carboxamide]
1 to 10	O=C(NCc1ccco1)c1ccc2c(c1)N(Cc1cccc(Cl)c1Cl)C(=O)CS2 [Example 11, 4-(2,3-dichloro-benzyl)-N-(furan-2-ylmethyl)-3-oxo-3,4-dihydro-2H-benzo[b-1,4]thiazine-6-carboxamide]
> 10	CC1Sc2ncc(C(=O)NCc3cnn(C)c3)cc2N(Cc2cc(F)cc(F)c2)C1=O (centres unmarked) [Example 216, 1-(3,5-difluorobenzyl)-3-methyl-N-((1-methyl-1H-pyrazol-4-yl)methyl)-2-oxo-2,3-dihydro-1H-pyrido[2,3-b][1,4] thiazine-7-carboxamide]
> 10	Cc1noc(CN2C(=O)CSc3ccc(C(=O)NCc4ccco4)cc32)n1 [Example 84, N-(furan-2-ylmethyl)-4-((3-methyl-1,2,4-oxadiazol-5-yl)methyl)-3-oxo-3,4-dihydro-2H-benzo[b-1,4]thiazine-6-carboxamide]
> 10	CC1Sc2ccc(C(=O)NCc3ccn(C)n3)cc2N(Cc2c(F)cccc2Cl)C1=O (centres unmarked) [Example 172, 4-(2-chloro-6-fluorobenzyl)-2-methyl-N-((1-methyl-1H-pyrazol-3-yl)methyl)-3-oxo-3,4-dihydro-2H-benzo[b] [1,4]thiazine-6-carboxamide]
1 to 10	O=C(NCc1c(F)cc(F)cc1F)c1ccc2c(c1)N(S(=O)(=O)c1ccccc1)CCS2 [Example 261, 4-(Phenylsulfonyl)-N-(2,4,6-trifluorobenzyl)-3,4-dihydro-2H-benzo[b-1,4]thiazine-6-carboxamide]
1 to 10	Cc1ccc(CNC(=O)c2cnc3c(c2)N(Cc2c(F)cccc2Cl)C(=O)CS3)o1 [Example 207, 1-(2-chloro-6-fluorobenzyl)-N-((5-methylfuran-2-yl)methyl)-2-oxo-2,3-dihydro-1H-pyrido [2,3-b][1,4] thiazine-7-carboxamide]
1 to 10	Cc1ccc(CNC(=O)c2ccc3c(n2)N(C(C)c2cc(F)cc(F)c2)C(=O)C(C)S3)o1 (centres unmarked) [Example 204, 4-(1-(3,5-difluorophenyl)ethyl)-2-methyl-N-((5-methylfuran-2-yl)methyl)-3-oxo-3,4-dihydro-2H-pyrido[3,2-b] [1,4] thiazine-6-carboxamide]
